Results reported in ChEMBL document CHEMBL5727859, “Indole derivatives and use thereof” (2020).

Test: FLIPR Assays: In vitro assays were performed in a recombinant cell line expressing cDNA encoding the alpha subunit (Nav1.7, SCN9a, PN1, NE) of human Nav1.7 (Accession No. NM_002977). The cell line was provided by investigators at Yale University (Cummins et al, J. Neurosci. 18(23): 9607-9619 (1998)). For dominant selection of the Nav1.7-expressing clones, the expression plasmid co-expressed the neomycin resistance gene. The cell line was constructed in the human embryonic kidney cell line, HEK293, under the influence of the […], and stable clones were selected using limiting dilution cloning and antibiotic selection using the neomycin analogue, G418. Recombinant beta and gamma subunits were not introduced into this cell line. Additional cell lines expressing recombinant Nav1.7 cloned from other species can also be used, alone or in combination with various beta subunits, gamma subunits or chaperones.

Structure (SMILES): NC(=O)[C@H](O)[C@@H](O)c1cccc(-c2ccc3c(ccn3CC3CC3)c2)n1
- IC50: 1020 µM
